Experimental data reported in PMC9517990 (Communications Biology, 2022).

Assays:
[1] = molecular target: neuraminidase of A/South Korea/90207/2020 NA-H275Y virus (Influenza A virus (A(H1N1)pdm09), UniProt A0A0X9QTS2, H275Y); type: biochemical
[2] = molecular target: neuraminidase of A/South Korea/90207/2020 NA-H275Y + PA-I38T virus (Influenza A virus (A(H1N1)pdm09), UniProt A0A0X9QTS2, H275Y); type: biochemical
[3] = molecular target: neuraminidase of A/South Korea/90207/2020 PA-I38T virus (Influenza A virus (A(H1N1)pdm09), UniProt A0A0X9QTS2); type: biochemical
[4] = tested on: A/South Korea/90207/2020 NA-H275Y virus; type: cell-based, influenza A(H1N1)pdm09 virus
[5] = tested on: A/South Korea/90207/2020 NA-H275Y + PA-I38T virus; type: cell-based, influenza A(H1N1)pdm09 virus
[6] = tested on: A/South Korea/90207/2020 PA-I38T virus; type: cell-based, influenza A(H1N1)pdm09 virus
[7] = read-out: EC50 nM ± SD (column headed IC50; footnote: EC50)

| SMILES | IC50 [1] [nM] | IC50 [2] [nM] | IC50 [3] [nM] | IC50 fold change compared to WT [3] [fold] | EC50 fold change compared to WT [4] [fold] | EC50 [4, 7] [nM] | EC50 fold change compared to WT [5] [fold] | EC50 [5, 7] [nM] | EC50 fold change compared to WT [6] [fold] | EC50 [6, 7] [nM] |
| --- | --- | --- | --- | --- | --- | --- | --- | --- | --- | --- |
| CCC(CC)[C@H](NC(C)=O)[C@@H]1[C@H](O)[C@@H](C(=O)O)C[C@H]1N=C(N)N [Peramivir, peramivir] | 16.8 ± 3.1 | 16.2 | 0.26 | 2 | – | – | – | – | – | – |
| O=C1c2c(O)c(=O)ccn2N([C@@H]2c3ccccc3SCc3c2ccc(F)c3F)[C@@H]2COCCN12 [Baloxavir, Baloxavir acid] | – | – | – | – | 1 | 1.2 ± 0.3 | 190 | 194 | 373 | 380 |
